Assay results taken from US20210393610A1, “COMPOSITIONS AND METHODS FOR TREATING GOUT AND HYPERURICEMIA” (Jiangsu Hengrui Medicine Co., Ltd., priority 2018, published 2021).
Values belong to the compound of their own block, whether it stands above or below them.

Columns and labels:
[1] = PK interaction of the compound of Formula I-1, febuxostat and colchicine (PK parameters in plasma); conditions: for AUC: plasma, oral, AUCss of the compound of Formula I-1, geometric mean
Description: (§1) The subjects were screened and examined on D-21 to D-15. 0.5 mg of colchicine once a day (qd) were orally administered to those who passed the screening on an empty stomach (D-14 to D16). If the subject was receiving an uric acid-lowering therapy (including allopurinol, febuxostat, benzbromarone, probenecid and the like) at the time of screening, the drug should be withdrawn for at least 2 weeks before D1. The subjects were admitted to the phase I clinical trial ward on D-2, and medical history inquiry, physical examination, vital signs examination, 12-lead electrocardiogram (ECG) examination, blood pregnancy examination (for female of childbearing age) were conducted again [if D-2 was more than 20 days away from the screening period, then blood examination, urine routine examination, CK\CK-MB, blood biochemistry (including serum creatinine and uric acid) examination were also required].
During the hospital stay, the subjects were fasted for more than 10 hours after dinner everyday (with free access to water). […] On D2, the subjects on an empty stomach were subjected to blood sampling, followed by having a standard meal which should be eaten within 20 minutes. Except for before the drug administration and 1 hour after the drug administration, water was consumed as needed at other times. On D3 to 8, no less than 2 L of water was consumed daily. On D9, the subjects can be discharged from the hospital after completing relevant examinations and operations, with a total hospital stay of 10 days. On D16 to 23, the subjects came back to the phase I clinical trial ward for follow-up. Throughout the study period, the subjects should avoid strenuous exercise and prolonged bed rest. The drug administration scheme is detailed in Table 1.
Colchicine tablets: D-14 to D16, 0.5 mg qd, orally administered on an empty stomach; Febuxostat tablets: D1 and D8, 80 mg qd, orally administered on an empty stomach; Tablets of the compound of Formula I-1: D3 to D8, 10 mg qd, orally administered on an empty stomach.
G. Main Observation Indicator • i. PK parameters of the compound of Formula I-1, febuxostat (Ruiyang®) and colchicine in plasma.

sUA = conditions: after 6 months; febuxostat alone group; cited from earlier work
[2] = febuxostat alone group v.s. lesinurad 400 mg plus febuxostat group; cited from earlier work
serum uric acid (sUA) = assay: PD interaction: serum uric acid (sUA) level after separate and combined administration; type: in vivo, patients suffering from gout
Description: as §1
During the hospital stay, the subjects were fasted for more than 10 hours after dinner everyday (with free access to water). […] On D2, the subjects on an empty stomach were subjected to blood sampling, followed by having a standard meal which should be eaten within 20 minutes. Except for before the drug administration and 1 hour after the drug administration, water was consumed as needed at other times. On D3 to 8, no less than 2 L of water was consumed daily. […]

[3] = combined administration with febuxostat 80 mg
[4] = combined administration with the compound of Formula I-1, no statistical difference (P>0.05)
[5] = impact of compound of Formula I-1 on colchicine
[6] = impact of febuxostat on colchicine
[7] = single administration (colchicine 0.5 mg qd)
[8] = impact of febuxostat on the compound of Formula I-1

SMILES: COc1cc2c(c(OC)c1OC)-c1ccc(OC)c(=O)cc1[C@@H](NC(C)=O)CC2 [colchicine]
Css, max of colchicine, geometric mean ([1]; combined administration with compound of Formula I-1 10 mg qd): 2.2048 ng/mL
AUCss of colchicine, geometric mean [1, 3]: 18.3270 ng·h/mL
Css, max of colchicine, geometric mean [1, 3]: 2.2601 ng/mL
decrease of Css,max of colchicine ([1]; combined administration with febuxostat, no statistical difference (P>0.05)): 9.92%
decrease of AUCss of colchicine [1, 4]: 9.84%
decrease of Css,max of colchicine [1, 4]: 12.12%
AUCss of colchicine, Ratio (combined administration vs single administration) [1, 5]: 90.16%
Css, max of colchicine, Ratio (combined administration vs single administration) [1, 5]: 87.88%
AUCss of colchicine, Ratio (combined administration vs single administration) [1, 6]: 99.43%
Css, max of colchicine, Ratio (combined administration vs single administration) [1, 6]: 90.08%
AUCss of colchicine, geometric mean [1, 7]: 18.4329 ng·h/mL
Css, max of colchicine, geometric mean [1, 7]: 2.5089 ng/mL

AUC0-last of febuxostat, Ratio (combined administration vs single administration) ([1]; human, in vivo): 88.54%
Cmax of febuxostat, Ratio (combined administration vs single administration) ([1]; human, in vivo): 86.42%
SMILES: Cc1nc(-c2ccc(OCC(C)C)c(C#N)c2)sc1C(=O)O [febuxostat]
proportion of patients who achieved sUA<5.0 mg/dl (sUA): 46.8%
incidence of kidney-related adverse events [2]: 5.5%
serum creatinine increased ≥ 1.5 times the baseline [2]: 2.8%
serum creatinine increased ≥2 times the baseline [2]: 0%
average maximum reduction of serum uric acid (sUA) concentration (serum uric acid (sUA); single administration of febuxostat 80 mg, compared with single administration of colchicine at steady state): 22.144%

effect of febuxostat on the steady-state exposure level of the compound of Formula I-1 ([1]; combined administration of febuxostat and the compound of Formula I-1): substantially no effect
Css, max of the compound of Formula I-1, geometric mean ([1]; combined administration with febuxostat 80 mg (colchicine background)): 1687.45 ng/mL
AUC ([1]; human, combined administration with febuxostat 80 mg (colchicine background)): 14700 ng·h/mL
AUC ([1]; human, single administration, 10 mg qd (colchicine 0.5 mg qd background)): 14400 ng·h/mL
AUCss of the compound of Formula I-1, Ratio (combined administration vs single administration) [1, 8]: 102.31%
Css, max of the compound of Formula I-1, Ratio (combined administration vs single administration) [1, 8]: 101.68%
Css, max of the compound of Formula I-1, geometric mean ([1]; single administration, 10 mg qd (colchicine 0.5 mg qd background)): 1659.60 ng/mL
SMILES: O=C([O-])C1(Sc2ccnc3ccc(Br)cc23)CCC1.[Na+] [compound of Formula I-1]
average maximum reduction of serum sUA concentration (serum uric acid (sUA); compound of Formula I-1 10 mg qd administered sequentially, relative to baseline (D3-0 h)): 60.883%
